# Source: article PMC2866539, “HLA Class I Binding 9mer Peptides from Influenza A Virus Induce CD4^+ T Cell Responses” (PLoS ONE, 2010)
# Where no end group is shown, it is not given here.
# Columns and labels:
# Assay in all cases: biochemical
# Format in all cases: binding
# [1] = biological target: T1, DRA1*0101/DRB1*0401 (Homo sapiens, UniProt P01903+P01911, A100K/A169T/F76Y/I96L/K127E/L162R/M171V/N62H/P40V/Q125Y/R42H/S133A/S149N/S66Y/V115G/V209L/W38E)
# T1 construct: made in house
# [2] = biological target: DRA1*0101/DRB3*0301 (Homo sapiens, UniProt P01903+P79483, A169T/A212P/D57E/G115V/L67V/Q178H/R103Q/R40L/Y55F)
# Sequence of DRA1*0101/DRB3*0301 (P01903 26-254 limits assumed): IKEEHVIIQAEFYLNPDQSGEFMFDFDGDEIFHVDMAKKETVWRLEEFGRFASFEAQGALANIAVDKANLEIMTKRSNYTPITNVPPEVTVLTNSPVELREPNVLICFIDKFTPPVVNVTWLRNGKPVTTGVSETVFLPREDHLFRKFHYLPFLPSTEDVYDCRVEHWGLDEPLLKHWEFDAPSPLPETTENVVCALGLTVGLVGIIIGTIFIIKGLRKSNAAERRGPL
# Sequence of DRA1*0101/DRB3*0301 (P79483 30-266 R40L/Y55F/D57E/L67V/R103Q/G115V/A169T/Q178H/A212P limits assumed): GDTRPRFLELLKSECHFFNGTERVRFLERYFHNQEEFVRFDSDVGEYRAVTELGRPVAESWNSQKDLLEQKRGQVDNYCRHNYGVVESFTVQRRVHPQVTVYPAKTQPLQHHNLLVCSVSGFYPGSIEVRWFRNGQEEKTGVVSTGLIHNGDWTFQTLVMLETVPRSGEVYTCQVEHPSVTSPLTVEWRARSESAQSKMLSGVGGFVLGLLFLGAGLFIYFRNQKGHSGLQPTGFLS
# [3] = biological target: DRA1*0101/DRB1*0302 (Homo sapiens, UniProt P01903+P01911, A100K/A102G/A103R/A169T/D57E/F76Y/I96L/K41T/L162R/M171V/P40S/Q125H/Q178H/Q39Y/R42S/S66N/T106N/T262R/V115G/W38E/Y61H)
# [4] = biological target: T2, DRA1*0101/DRB1*0101 (Homo sapiens, UniProt P01903+P01911, A100R/D57E/F55L/F60I/F76Y/I96L/L162R/M171V/P40L/Q125E/R42F/V115G/Y59C)
# T2 construct: made in house
# [5] = biological target: DRA1*0101/DRB1*0301 (Homo sapiens, UniProt P01903+P01911, A100K/A102G/A103R/A169T/F55Y/I96L/K41T/L162R/M171V/P40S/Q125H/Q178H/Q39Y/R42S/S66N/T106N/T262R/W38E/Y61H)
# Sequence of DRA1*0101/DRB1*0301 (P01903 26-254 limits assumed, other chains not shown): as the sequence (P01903 26-254 limits assumed) above
sequence,measurement,setting,value
"YILLKKILSSRFNQM [hypothetical protein 239–253, reference compound]",Kd,[1],0.107 µM
same,Kd,[2],0.003 µM
same,Kd,[3],0.156 µM
same,Kd,[4],0.435 µM
same,Kd,[5],0.02 µM
